Assay: xn = mol fraction of the nth substance listed
Details: Liquid, Vibrating tube method

CCCCCCCO [heptan-1-ol] + CCCCOCCCC
mass density [kg/m3]
Details | x2 = 0 | x2 = 0.1488 | x2 = 0.3201 | x2 = 0.4944 | x2 = 0.7014 | x2 = 0.8534
298.15 K, 100 kPa | 818.7 | 810.1 | 800.3 | 790.9 | 779.5 | 771.7
298.15 K, 1000 kPa | 819.3 | 810.8 | 801 | 791.6 | 780.2 | 772.5
298.15 K, 5000 kPa | 821.9 | 813.5 | 803.9 | 794.6 | 783.5 | 775.8
298.15 K, 10000 kPa | 824.9 | 816.7 | 807.3 | 798.3 | 787.3 | 779.9
298.15 K, 15000 kPa | 828 | 819.9 | 810.6 | 801.8 | 791 | 783.7
298.15 K, 20000 kPa | 830.8 | 822.9 | 813.8 | 805 | 794.5 | 787.4
298.15 K, 25000 kPa | 833.5 | 825.8 | 816.9 | 808.3 | 797.9 | 790.8
298.15 K, 30000 kPa | 836.3 | 828.6 | 819.8 | 811.4 | 801.1 | 794.2
298.15 K, 35000 kPa | 838.8 | 831.2 | 822.6 | 814.3 | 804.2 | 797.4
298.15 K, 40000 kPa | 841.3 | 833.9 | 825.3 | 817.1 | 807.3 | 800.5
298.15 K, 45000 kPa | 843.8 | 836.5 | 828 | 819.9 | 810.2 | 803.5
298.15 K, 50000 kPa | 846.2 | 838.9 | 830.6 | 822.6 | 813 | 806.4
298.15 K, 55000 kPa | 848.5 | 841.3 | 833.1 | 825.3 | 815.7 | 809.2
298.15 K, 60000 kPa | 850.8 | 843.7 | 835.5 | 827.8 | 818.4 | 811.9
298.15 K, 65000 kPa | 853 | 845.9 | 837.9 | 830.3 | 820.9 | 814.6
298.15 K, 70000 kPa | 855.2 | 848.2 | 840.3 | 832.7 | 823.5 | 817.2
298.15 K, 80000 kPa | 859.4 | 852.6 | 844.8 | 837.3 | 828.3 | 822.2
298.15 K, 90000 kPa | 863.5 | 856.7 | 849.1 | 841.9 | 833 | 827
298.15 K, 100000 kPa | 867.3 | 860.7 | 853.2 | 846.1 | 837.4 | 831.5
298.15 K, 110000 kPa | 871.1 | 864.6 | 857.2 | 850.2 | 841.6 | 835.8
298.15 K, 120000 kPa | 874.6 | 868.2 | 861 | 854 | 845.6 | 839.9
298.15 K, 130000 kPa | 878.1 | 871.8 | 864.6 | 857.8 | 849.6 | 843.9
298.15 K, 140000 kPa | 881.5 | 875.3 | 868.2 | 861.4 | 853.3 | 847.8
313.15 K, 100 kPa | 808 | 799 | 788.8 | 778.9 | 767 | 758.8
313.15 K, 1000 kPa | 808.6 | 799.7 | 789.5 | 779.7 | 767.8 | 759.7
313.15 K, 5000 kPa | 811.4 | 802.6 | 792.5 | 783 | 771.3 | 763.3
313.15 K, 10000 kPa | 814.7 | 806.1 | 796.3 | 786.9 | 775.6 | 767.8
313.15 K, 15000 kPa | 817.9 | 809.5 | 799.8 | 790.7 | 779.5 | 771.9
313.15 K, 20000 kPa | 821 | 812.7 | 803.3 | 794.3 | 783.4 | 775.9
313.15 K, 25000 kPa | 823.8 | 815.6 | 806.4 | 797.5 | 786.8 | 779.4
313.15 K, 30000 kPa | 826.8 | 818.8 | 809.7 | 801 | 790.5 | 783.3
313.15 K, 35000 kPa | 829.5 | 821.6 | 812.7 | 804.2 | 793.7 | 786.7
313.15 K, 40000 kPa | 832.1 | 824.4 | 815.5 | 807.1 | 796.9 | 790
313.15 K, 45000 kPa | 834.7 | 827 | 818.3 | 810.1 | 800 | 793.2
313.15 K, 50000 kPa | 837.2 | 829.7 | 821.1 | 812.9 | 803 | 796.3
313.15 K, 55000 kPa | 839.7 | 832.3 | 823.8 | 815.7 | 805.9 | 799.3
313.15 K, 60000 kPa | 842.1 | 834.8 | 826.4 | 818.4 | 808.7 | 802.2
313.15 K, 65000 kPa | 844.4 | 837.2 | 828.9 | 821 | 811.5 | 804.9
313.15 K, 70000 kPa | 846.7 | 839.6 | 831.3 | 823.5 | 814.1 | 807.7
313.15 K, 80000 kPa | 851.1 | 844 | 836 | 828.4 | 819.1 | 812.9
313.15 K, 90000 kPa | 855.3 | 848.4 | 840.6 | 833.2 | 824 | 817.9
313.15 K, 100000 kPa | 859.3 | 852.5 | 844.8 | 837.5 | 828.7 | 822.6
313.15 K, 110000 kPa | 863.2 | 856.6 | 849.1 | 841.8 | 833.2 | 827.2
313.15 K, 120000 kPa | 867 | 860.4 | 853 | 845.9 | 837.3 | 831.5
313.15 K, 130000 kPa | 870.6 | 864.2 | 856.9 | 849.9 | 841.4 | 835.7
313.15 K, 140000 kPa | 874.2 | 867.8 | 860.6 | 853.7 | 845.4 | 839.8
333.15 K, 100 kPa | 793.3 | 783.8 | 772.9 | 762.5 | 749.9 | 741.3
333.15 K, 1000 kPa | 794 | 784.6 | 773.7 | 763.4 | 750.8 | 742.3
333.15 K, 5000 kPa | 797.1 | 787.8 | 777.2 | 767.1 | 754.8 | 746.5
333.15 K, 10000 kPa | 800.7 | 791.7 | 781.4 | 771.5 | 759.6 | 751.4
333.15 K, 15000 kPa | 804.3 | 795.4 | 785.3 | 775.8 | 764.1 | 756.1
333.15 K, 20000 kPa | 807.7 | 798.9 | 789.1 | 779.6 | 768.3 | 760.5
333.15 K, 25000 kPa | 810.8 | 802.3 | 792.6 | 783.4 | 772.2 | 764.7
333.15 K, 30000 kPa | 813.9 | 805.5 | 796 | 787 | 776.1 | 768.6
333.15 K, 35000 kPa | 816.9 | 808.7 | 799.3 | 790.4 | 779.7 | 772.4
333.15 K, 40000 kPa | 819.8 | 811.7 | 802.5 | 793.7 | 783.2 | 776.1
333.15 K, 45000 kPa | 822.4 | 814.5 | 805.5 | 796.9 | 786.5 | 779.5
333.15 K, 50000 kPa | 825.2 | 817.4 | 808.5 | 800 | 789.8 | 782.9
333.15 K, 55000 kPa | 827.8 | 820.1 | 811.3 | 802.9 | 792.9 | 786
333.15 K, 60000 kPa | 830.3 | 822.7 | 814.1 | 805.8 | 795.9 | 789.2
333.15 K, 65000 kPa | 832.9 | 825.3 | 816.8 | 808.6 | 798.9 | 792.2
333.15 K, 70000 kPa | 835.3 | 827.9 | 819.5 | 811.4 | 801.7 | 795.1
333.15 K, 80000 kPa | 839.9 | 832.7 | 824.4 | 816.6 | 807.1 | 800.7
333.15 K, 90000 kPa | 844.5 | 837.4 | 829.3 | 821.6 | 812.3 | 806
333.15 K, 100000 kPa | 848.7 | 841.7 | 833.8 | 826.3 | 817.2 | 811.1
333.15 K, 110000 kPa | 852.8 | 845.9 | 838.2 | 830.8 | 821.9 | 815.9
333.15 K, 120000 kPa | 856.8 | 850 | 842.3 | 835.1 | 826.4 | 820.5
333.15 K, 130000 kPa | 860.5 | 853.9 | 846.4 | 839.3 | 830.7 | 824.8
333.15 K, 140000 kPa | 864.3 | – | – | – | – | –
